From patent publication US20140242093A1, “METHODS AND COMPOSITIONS FOR MODULATING THE INNATE IMMUNE RESPONSE AND/OR MYOGENESIS IN A MAMMALIAN SUBJECT” (FRED HUTCHINSON CANCER RESEARCH CENTER, priority 2011, published 2014)

Tested on: control human primary myoblasts
Assay: Expression microarray of primary myoblasts transduced with lentivirus carrying DUX4-fl, DUX4-s or GFP
Description: Primary human myoblasts were collected and cultured as previously described (Snider et al., 2010). Primary myoblasts were maintained at or below 70% confluency for proliferation. For differentiation, cells were allowed to reach 95-100% confluency in growth medium. Once confluency was reached, the cells were changed to differentiation medium (F10 media supplemented with 1% horse serum, 10 μg/mL insulin, and 10 μg/mL transferrin, penicillin/streptomycin) and maintained for 4 days. Human RD cells were grown in DMEM in 10% bovine calf serum (Hyclone) and penicillin/streptomycin. The primary myoblasts were transduced with lentivirus carrying DUX-fl, DUX4- or GFP (MOI=15).
Expression microarrays were performed on the transduced cells at 24 hours after transduction as follows. […] Samples were analyzed by Illumina Human Whole Genome microarrays. Probe intensities were corrected, normalized, and summarized by the Lumi package of Bioconductor (Du et al., 2008). Differentially expressed genes were identified by the LIMMA package of Bioconductor (Wettenhall and Smyth, 2004). Gene set enrichment analysis (GSEA) was performed using the Bioconductor GOstats package (Falcon and Gentleman, 2007).

DUX4-fl: full-length DUX4 protein (SEQ ID NO:110), expressed from lentiviral or pCS2 vectors or in vitro translated
fc of DENND5A (expression array) (Refseq NM_015213.2): −1.037 | fc of FEM1B (expression array) (Refseq NM_015322.3): −0.5708 | fc of PANX1 (expression array) (Refseq NM_015368.3): −0.114 | fc of AASDHPPT (expression array) (Refseq NM_015423.2): −0.238 | MTHFD1L fc (Refseq NM_015440.3): −1.173 | C2orf32 fc (Refseq NM_015463.1): −1.1 | PVRL3 expression fc (Refseq NM_015480.1): 2.223 | NGDN expression fc (Refseq NM_015514.1): 2.058 | fc of RRM2B (expression array) (Refseq NM_015713.3): −1.01 | MBD2 expression fc (Refseq NM_015832.3): 1.818 | fc of MBTPS2 (expression array) (Refseq NM_015884.1): −0.6539 | ARS2 expression fc (Refseq NM_015908.4): 2.602 | GSTK1 fc (Refseq NM_015917.1): −1.079 | NOP58 expression fc (Refseq NM_015934.3): 1.887 | CRLF3 expression fc (Refseq NM_015986.2): 1.912 | fc of TTC15 (expression array) (Refseq NM_016030.5): −1.015 | ISOC1 expression fc (Refseq NM_016048.1): 2.003 | MED31 expression fc (Refseq NM_016060.2): 2.055 | fc of TRPV2 (expression array) (Refseq NM_016113.3): −1.02 | CERCAM fc (Refseq NM_016174.3): −1.121 | DBR1 expression fc (Refseq NM_016216.2): 3.379 | POLR3K expression fc (Refseq NM_016310.2): 1.95 | HERC5 expression fc (Refseq NM_016323.2, cultured human skeletal muscle): −3.202 | fc of CENPF (expression array) (Refseq NM_016343.3): −0.4122 | CWC15 expression fc (Refseq NM_016403.3): 2.643 | fc of TMEM9 (expression array) (Refseq NM_016456.2): −1.008 | RAB6B expression fc (Refseq NM_016577.3): 3.17 | SLC15A3 expression fc (Refseq NM_016582.1, cultured human skeletal muscle): −3.754 | FKBP11 fc (Refseq NM_016594.1): −1.125 | ARMCX1 fc (Refseq NM_016608.1): −1.116 | C8orf55 fc (Refseq NM_016647.2): −1.082 | HOXC13 fc (Refseq NM_017410.2): −1.107 | USP18 expression fc (Refseq NM_017414.3, cultured human skeletal muscle): −2.497 | PARP14 expression fc (Refseq NM_017554.1, cultured human skeletal muscle): −2.825 | fc of SLC43A3 (expression array) (Refseq NM_017611.2): −1.026 | NOTCH1 fc (Refseq NM_017617.3): −1.08 | KIF21A expression fc (Refseq NM_017641.2): 1.837 | fc of AHI1 (expression array) (Refseq NM_017651.3): −0.5927 | SAMD9 expression fc (Refseq NM_017654.2, cultured human skeletal muscle): −2.863 | FAM46C expression fc (Refseq NM_017709.3): 2.389 | RETSAT expression fc (Refseq NM_017750.2, cultured human skeletal muscle): −1.929 | LYAR expression fc (Refseq NM_017816.1): 1.977 | ZSCAN2 expression fc (Refseq NM_017894.4): 2.151 | HERC6 expression fc (Refseq NM_017912.3, cultured human skeletal muscle): −3.728 | PID1 fc (Refseq NM_017933.3): −1.128 | ZNHIT6 expression fc (Refseq NM_017953.2): 3.519 | C14orf102 expression fc (Refseq NM_017970.2): 2.529 | fc of WIPI1 (expression array) (Refseq NM_017983.4): −1.022 | RNF31 fc (Refseq NM_017999.4): −1.08 | FRMD4A fc (Refseq NM_018027.3): −1.164 | FAM90A1 expression fc (Refseq NM_018088.3): 3.636 | fc of RBM23 (expression array) (Refseq NM_018107.4): −1.022 | PNPO fc (Refseq NM_018129.2): −1.13 | SEC61A2 expression fc (Refseq NM_018144.2): 1.837 | NADSYN1 fc (Refseq NM_018161.4): −1.086 | TMEM140 expression fc (Refseq NM_018295.2, cultured human skeletal muscle): −2.946 | BRIX1 expression fc (Refseq NM_018321.3): 1.886 | DRAM1 fc (Refseq NM_018370.2): −1.087 | LSG1 expression fc (Refseq NM_018385.1): 1.994 | TBC1D2 fc (Refseq NM_018421.2): −1.075 | RRN3 expression fc (Refseq NM_018427.3): 2.068 | ZNF302 fc (Refseq NM_018443.2): −1.164 | fc of GLT8D1 (expression array) (Refseq NM_018446.2): −1.021 | BEX1 fc (Refseq NM_018476.3): −1.097 | SLC35E3 fc (Refseq NM_018656.2): −1.132 | DEFB103B expression fc (Refseq NM_018661.3): 2.499 | fc of SULF2 (expression array) (Refseq NM_018837.2): −1.048 | PDE7B fc (Refseq NM_018945.3): −1.116 | NANS expression fc (Refseq NM_018946.2): 1.872 | POLR1B expression fc (Refseq NM_019014.3): 1.904 | CCNJ expression fc (Refseq NM_019084.2): 2.695 | fc of HOXA5 (expression array) (Refseq NM_019102.2): −1.005 | PNO1 expression fc (Refseq NM_020143.2): 2.151 | KTELC1 fc (Refseq NM_020231.3): −1.073 | C1orf63 expression fc (Refseq NM_020317.3): 2.19 | ZMIZ1 fc (Refseq NM_020338.2): −1.165 | TRIM49 expression fc (Refseq NM_020358.2): 6.551 | LYRM1 fc (Refseq NM_020424.2): −1.126 | SLC44A2 fc (Refseq NM_020428.2): −1.158 | PCBP3 fc (Refseq NM_020528.1): −1.122 | NFKBIA expression fc (Refseq NM_020529.1, cultured human skeletal muscle): −3.004 | fc of RCN3 (expression array) (Refseq NM_020650.2): −1.062 | PELI1 expression fc (Refseq NM_020651.2): 2.886 | fc of FAM62B (expression array) (Refseq NM_020728.1): −0.7938 | HECW2 fc (Refseq NM_020760.1): −1.167 | ZNF319 fc (Refseq NM_020807.1): −1.119 | OSBPL8 expression fc (Refseq NM_020841.4): 1.95 | USP29 expression fc (Refseq NM_020903.2): 2.597 | fc of RNF213 (expression array) (Refseq NM_020914.3): −1.024 | fc of FAM160B1 (expression array) (Refseq NM_020940.3): −1.051 | fc of IGDCC4 (expression array) (Refseq NM_020962.1): −1.054 | RFPL1 expression fc (Refseq NM_021026.2): 6.264 | IFITM3 expression fc (Refseq NM_021034.2, cultured human skeletal muscle): −1.949 | NEFH expression fc (Refseq NM_021076.2): 1.936 | fc of SLC8A1 (expression array) (Refseq NM_021097.2): −0.4596 | PSAT1 fc (Refseq NM_021154.3): −1.076 | RAB40C fc (Refseq NM_021168.2): −1.168 | fc of SLC30A1 (expression array) (Refseq NM_021194.2): −0.3462 | CTDSP1 fc (Refseq NM_021198.1): −1.122 | ARHGAP22 fc (Refseq NM_021226.2): −1.084 | fc of NTN4 (expression array) (Refseq NM_021229.3): −1.022 | PELI2 expression fc (Refseq NM_021255.2): 2.782 | PLEKHA2 fc (Refseq NM_021623.1): −1.077 | AVPI1 expression fc (Refseq NM_021732.1): 2.022 | fc of FAM3A (expression array) (Refseq NM_021806.1): −1.022 | APOBEC3G expression fc (Refseq NM_021822.1, cultured human skeletal muscle): −2.012 | fc of C14orf93 (expression array) (Refseq NM_021944.1): −1.063 | HSPA2 expression fc (Refseq NM_021979.3): 3.67 | CXCL16 fc (Refseq NM_022059.1): −1.09 | NOD2 fc (Refseq NM_022162.1): −1.135 | IFIH1 expression fc (Refseq NM_022168.2, cultured human skeletal muscle): −3.705 | HS1BP3 fc (Refseq NM_022460.3): −1.078 | C14orf173 fc (Refseq NM_022489.2): −1.167 | FEZ1 fc (Refseq NM_022549.2): −1.073 | HIPK2 fc (Refseq NM_022740.2): −1.173 | fc of MOSC1 (expression array) (Refseq NM_022746.2): −1.034 | PARP12 expression fc (Refseq NM_022750.2, cultured human skeletal muscle): −3.165 | CRTC3 fc (Refseq NM_022769.3): −1.138 | FAM129B fc (Refseq NM_022833.2): −1.126 | IFI6 expression fc (Refseq NM_022872.2, cultured human skeletal muscle): −4.24 | FGFR3 expression fc (Refseq NM_022965.1): 3.112 | PRAMEF1 expression fc (Refseq NM_023013.1): 8.072 | PRAMEF2 expression fc (Refseq NM_023014.1): 6.439 | C8orf33 expression fc (Refseq NM_023080.1): 2.251 | GRAMD3 fc (Refseq NM_023927.1): −1.115 | NEUROG2 expression fc (Refseq NM_024019.2): 3.857 | NUP37 fc (Refseq NM_024057.2): −1.075 | PRRG4 expression fc (Refseq NM_024081.4): 2.369 | TRIM48 expression fc (Refseq NM_024114.2): 7.88 | DHX58 expression fc (Refseq NM_024119.2, cultured human skeletal muscle): −2.836 | PRKAG2 fc (Refseq NM_024429.1): −1.099 | fc of FAM65A (expression array) (Refseq NM_024519.2): −1.053 | fc of ZC3HAV1 (expression array) (Refseq NM_024625.3): −0.8233 | YRDC expression fc (Refseq NM_024640.3): 2.601 | NPEPL1 fc (Refseq NM_024663.3): −1.113 | SNIP1 expression fc (Refseq NM_024700.2): 2.104 | fc of FAM57A (expression array) (Refseq NM_024792.1): −1.045 | C13orf34 expression fc (Refseq NM_024808.2): 2.492 | fc of NUDT18 (expression array) (Refseq NM_024815.3): −1.034 | fc of ZNF672 (expression array) (Refseq NM_024836.1): −1.034 | C14orf159 expression fc (Refseq NM_024952.5, cultured human skeletal muscle): −2.07 | NRSN2 fc (Refseq NM_024958.1): −1.091 | SLC24A6 fc (Refseq NM_024959.2): −1.099 | CSRNP3 expression fc (Refseq NM_024969.2): 2.496 | fc of ULBP1 (expression array) (Refseq NM_025218.2): −1.025 | C6orf148 expression fc (Refseq NM_030568.2): 6.759 | KLHL15 expression fc (Refseq NM_030624.1): 3.373 | fc of ZBP1 (expression array) (Refseq NM_030776.1): −0.3281 | SLC2A10 fc (Refseq NM_030777.3): −1.119 | SYNC1 fc (Refseq NM_030786.1): −1.127 | PDRG1 expression fc (Refseq NM_030815.2): 1.783 | UNC93B1 expression fc (Refseq NM_030930.2, cultured human skeletal muscle): −1.961 | PPP1R14C expression fc (Refseq NM_030949.2): 3.049 | TRIM56 fc (Refseq NM_030961.1): −1.14 | fc of RNF146 (expression array) (Refseq NM_030963.2): −1.02 | ADPGK expression fc (Refseq NM_031284.3): 2.233 | C11orf68 fc (Refseq NM_031450.2): −1.142 | FAM107B expression fc (Refseq NM_031453.2): 2.529 | PARP9 expression fc (Refseq NM_031458.1, cultured human skeletal muscle): −2.098 | IFI27L2 fc (Refseq NM_032036.2): −1.137 | SFRS2B expression fc (Refseq NM_032102.2): 4.215
